According to patent publication US20220378756A1, “ACTIVATING PYRUVATE KINASE R” (FORMA Therapeutics, Inc., priority 2019, published 2022):
Entries after “also recorded” stand apart in the source; their conditions may differ.

What was measured:
[1] = tested on: H295R adreno-cortical carcinoma cell line; experiment: Steroid modulation screen in vitro; assay type: cell-based; conditions: tested at 200 to 0.0002 μM; only at the top concentration
Method: To assess potential effects on steroidogenesis, Compound 1 was screened for steroid modulation in vitro using the H295R adreno-cortical carcinoma cell line (at 200 to 0.0002 μM) and in an assay to monitor cell viability (MTT Kit). Compound 1 indicated steroid modulation potential (% over vehicle) only at 200 µM, the top concentration tested, with 100% cellular viability at concentrations ≤20 μM (90% viability at 200 μM).

[2] = tested on: ATP and 2,3-DPG levels in blood cells; experiment: 28-day daily dosing in non-human primates; assay type: in vivo
Method: 2,3-DPG levels in blood cells from non-human primates receiving daily doses of Compound 1 at 100, 350 and 550 mg/kg for 28 days were measured. Dose dependent decreases in 2,3-DPG levels were observed, with up to a 40% decrease from pretreatment levels, as illustrated in FIG. 22.

[3] = Phase 1, SCD patients single 700 mg dose: safety; assay type: in vivo, human
Method: (§1) In this study, SAD/MAD cohorts are randomized (3 to 1) to receive Compound 1 or placebo (P). Compound 1 was evaluated first in 4 healthy SAD cohorts and 4 healthy MAD (14-day dosing period) cohorts. Based on the safety, and PK/PD profile from HS, Compound 1 is then evaluated in 1 SCD SAD cohort and 2 SCD MAD cohorts. Specifically, based on the safety and pharmacokinetic/pharmacodynamics (PK/PD) profile in healthy volunteer studies, Compound 1 is evaluated in patients (pts) with SCD, first in a single dose (SD or SAD) cohort and then in multiple-dose (MD or MAD) cohorts (14-day and 12-week). Safety assessments include AEs, vital signs, ECGs and laboratory parameters. PK/PD blood sampling was performed on Day 1 (SAD/MAD) and Day 14 (MAD) and up to 72 h after the last dose and at the end-of-study visit. PD parameters included 2,3-DPG, ATP, and p50 in all cohorts with additional PD studies (including oxygen scan) performed only in the SCD cohorts. PD parameters included 2,3-DPG, ATP, p50, RBC deformability with controlled deoxygenation and reoxygenation (Lorrca® oxygen scan) and varying osmolality (Lorrca® osmoscan)). To maintain study blind, pt identifiers were removed when needed.
In the SD cohort, 7 pts (2 males, 5 females, all HbSS) received 700 mg Compound 1 (n=5) or placebo (n=2).
All SCD patients who received a single 700 mg dose of Compound 1 or placebo were monitored for adverse events for 7 days. The incidence of treatment emergent adverse events (TEAEs) in SCD patients receiving Compound 1 (700 mg) or placebo are reported in Table 23. Six TEAEs were reported in 4 patients; all TEAEs were grade 1 and transient. Specifically, six TEAEs were reported in 4 of 7 ([…]) patients, including 3 TEAEs (arthralgia, headache, palpitations) in 2 of 5 ([…]) pts receiving Compound 1 and 3 TEAEs (back pain, myalgia, pruritis) in 2 of 2 (100%) pts receiving placebo; all TEAEs were grade 1 and transient. […] One possibly related TEAE (palpitations) occurred about 8 hours post dose. No other symptoms were observed, and the palpitations resolved in <1 minute. […] The single 700 mg dose of Compound 1 was considered tolerable, and the first multiple dose SCD cohort (“Dose 1” in FIG. 28) was initiated.

[4] = tested on: estradiol and testosterone levels; experiment: Circulating estradiol and testosterone in healthy subjects, 14 days; assay type: in vivo, human; conditions: healthy subjects, 100, 200, 300 mg BID and 400 mg QD for 14 days; days 8, 14, 17
Method: Effects on circulating levels of estradiol and testosterone in male and female healthy subjects receiving Compound 1 or placebo for a treatment period of 14 days were evaluated. Compound 1 was administered twice daily (BID) at dose levels of 100 mg, 200 mg, and 300 mg, and once daily (QD) at a dose level of 400 mg. Each dosing cohort was comprised of 9 subjects treated with Compound 1 and 3 subjects treated with placebo. Testosterone and estradiol levels were assessed prior to dosing (baseline), and then on days 8, 14 and 17.

[5] = Phase 1 SAD/MAD, healthy volunteers: safety; assay type: in vivo, human
From the text: This is a first-in-human (FIH), Phase 1 study of Compound 1 that will characterize the safety, PK, and PD of Compound 1 after a single dose and after repeated dosing first in healthy adult volunteers and then in adolescents or adults with sickle cell disease. Initially, a dose range of Compound 1 in single ascending dose (SAD) escalation cohorts will be explored in healthy subjects. Enrollment of healthy subjects into 2-week multiple ascending dose (MAD) escalation cohorts will be initiated once the safety and PK from at least two SAD cohorts is available to inform the doses for the 2-week MAD portion of the study. The MAD cohorts will then run in parallel to the single dose cohorts. A single dose cohort is planned to understand food effects (FE) on the PK of Compound 1. […] Multiple dose studies in SCD subjects will then be initiated upon completion of MAD studies in healthy volunteers. Compound 1 will be administered in 25 mg and 100 mg tablets delivered orally.
as §1
Four healthy SAD cohorts were evaluated at doses of 200, 400, 700, and 1000 mg, and four healthy MAD cohorts received 200 to 600 mg total daily doses for 14 days at QD or BID dosing (100 mg BID, 200 mg BID, 300 mg BID, and 400 mg QD). In the food effect (FE) cohort, 10 healthy subjects received 200 mg of Compound 1 QD with and without food.

For O=C([C@H](CO)c1ccccc1)N1CC2=C(C1)CN(S(=O)(=O)c1cnc3c(c1)OCCO3)C2 (single isomer, unassigned) [Compound 1], the concentration at which steroid modulation potential (% over vehicle) was indicated [1] was 200 µM, the “increase in ATP levels compared to pre-treatment” value ([2]; 550 mg/kg daily for 28 days (highest dose)) was 90% and the “decrease in 2,3-DPG from pretreatment levels” value ([2]; daily doses 100, 350 and 550 mg/kg for 28 days) was no more than 40%. For the same compound, the “serious adverse events / TEAEs leading to withdrawal” value ([3]; SCD single dose cohort) was “No serious adverse events (SAEs) or TEAEs leading to pt withdrawal”, the “Any TEAE, n (%)” value ([3]; SCD, 700 mg single dose, N = 5) was 2 (40) n (%) and the “TEAE related to study drug, n (%)” value ([3]; SCD, 700 mg single dose, N = 5) was 1 (20) n (%). For the same compound, the pts with TEAEs (2 of 5) ([3]; SCD, 700 mg single dose, 3 TEAEs (arthralgia, headache, palpitations), grade 1) was 40%, the “change from baseline for testosterone and estradiol levels” value [4] was “No effect on testosterone or estradiol levels; also recorded: no statistically significant changes” and the “Grade 1 headache, incidence” value ([5]; HS receiving 14 days of dosing) was 28%. The “Grade 1 headache, incidence” value ([5]; HS receiving a single dose) was 4%, the “related TEAE of grade 2 or less: headache” value ([5]; MAD cohorts) was 4 n and the “related TEAE of grade 2 or less: palpitations” value ([5]; MAD cohorts) was 1 n. The “related TEAE of grade 2 or less: somnolence” value ([5]; MAD cohorts) was 1 n, the “Any TEAE, n (%)” value ([5]; MAD, N = 36) was 15 (42) n (%) and the “Any grade 3 or greater TEAE, n (%)” value ([5]; MAD, N = 36) was 0 n (%). The “Drug interruption, reduction, or discontinuation due to TEAE, n (%)” value ([5]; MAD, N = 36) was 0 n (%), the “serious adverse events / AEs leading to withdrawal” value ([5]; SAD and MAD cohorts of healthy volunteers) was “No serious adverse events (SAEs) or AEs leading to withdrawal” and the “related TEAE of grade 2 or less: headache” value ([5]; SAD cohorts) was 1 n. The “related TEAE of grade 2 or less: transient ventricular tachycardia” value ([5]; SAD cohorts) was 1 n, the “Any TEAE, n (%)” value ([5]; SAD, N = 24) was 5 (21) n (%) and the “Any grade 3 or greater TEAE, n (%)” value ([5]; SAD, N = 24) was 1 (4) n (%). The “Drug interruption, reduction, or discontinuation due to TEAE, n (%)” value ([5]; SAD, N = 24) was 0 n (%).
